Results published in ChEMBL document CHEMBL3769346, “Synthesis and SAR of calcitonin gene-related peptide (CGRP) antagonists containing substituted aryl-piperazines and piperidines” (Bioorg Med Chem Lett, 2016).
pIC50: −log10 of the molar value. Calls of active or inactive are those of the source. The calls are words filed in the database; no cut-off is given here.

What was measured:
[1] = Permeability of compound by PAMPA; type: ADME; conditions: read-out: permeability
[2] = Permeability of compound across apical to basolateral side in human Caco2 cells; type: ADME, cell-based; conditions: Caco-2, read-out: permeability
[3] = test system: CGRP receptor (CALCRL/RAMP1) (Homo sapiens); test: Antagonist activity at CGRP receptor (unknown origin)
[4] = molecular target: CGRP receptor (CALCRL/RAMP1) (Homo sapiens); test: Displacement of [125I]CGRP from CGRP receptor in human SK-N-MC cells after 2 hrs by scintillation counter

Row | SMILES | Papp [1] [×10⁻⁶ cm/s] | Papp A→B [2] [×10⁻⁶ cm/s] | Activity [3] | pIC50 [4]
1 | Cc1cc(C[C@@H](NC(=O)N2CCN(c3ccc(Br)cc3)CC2)C(=O)N2CCC(N3CCCCC3)CC2)cc2cn[nH]c12 | 5.2 | < 1.5 | Active | 7.48
2 | Cc1cc(C[C@@H](NC(=O)N2CCN(c3ccc(F)c(F)c3)CC2)C(=O)N2CCC(N3CCCCC3)CC2)cc2cn[nH]c12 | – | – | – | 7.01
3 | Cc1cc(C[C@@H](NC(=O)N2CCN(c3ccc(S(C)(=O)=O)cc3Cl)CC2)C(=O)N2CCC(N3CCCCC3)CC2)cc2cn[nH]c12 | – | – | – | 8.15
4 | Cc1cc(C[C@@H](NC(=O)N2CCC(c3ccc4ccccc4c3)CC2)C(=O)N2CCC(N3CCCCC3)CC2)cc2cn[nH]c12 | 6.1 | < 1.5 | – | –
5 | Cc1cc(C[C@@H](NC(=O)N2CCN(c3ccccc3)CC2)C(=O)N2CCC(N3CCCCC3)CC2)cc2cn[nH]c12 | – | – | – | 7.36
6 | Cc1cc(C[C@@H](NC(=O)N2CCC(c3cccc4ccccc34)CC2)C(=O)N2CCC(N3CCCCC3)CC2)cc2cn[nH]c12 | – | – | – | 6.37
7 | Cc1cc(C[C@@H](NC(=O)N2CCC(c3cc4ccccc4cc3Cl)CC2)C(=O)N2CCC(N3CCCCC3)CC2)cc2cn[nH]c12 | 5.7 | < 1.5 | Active | 9.64
8 | Cc1cc(C[C@@H](NC(=O)N2CCN(c3ccc(F)cc3S(C)(=O)=O)CC2)C(=O)N2CCC(N3CCCCC3)CC2)cc2cn[nH]c12 | – | – | – | 8.54
9 | Cc1cccc(C2CCN(C(=O)N[C@H](Cc3cc(C)c4[nH]ncc4c3)C(=O)N3CCC(N4CCCCC4)CC3)CC2)c1F | – | – | – | 6.92
10 | Cc1cc(C[C@@H](NC(=O)N2CCN(c3ccccc3Br)CC2)C(=O)N2CCC(N3CCCCC3)CC2)cc2cn[nH]c12 | 3.5 | 5.6 | Active | 7.92
11 | Cc1cc(C[C@@H](NC(=O)N2CCC(c3ccc(F)cc3F)CC2)C(=O)N2CCC(N3CCCCC3)CC2)cc2cn[nH]c12 | – | – | – | 7.04
12 | Cc1cc(C[C@@H](NC(=O)N2CCC(c3ccc(Cl)cc3Cl)CC2)C(=O)N2CCC(N3CCCCC3)CC2)cc2cn[nH]c12 | 2.4 | < 1.5 | Active | 8.96
13 | Cc1cc(C[C@@H](NC(=O)N2CCC(c3cc4ccccc4cc3C#N)CC2)C(=O)N2CCC(N3CCCCC3)CC2)cc2cn[nH]c12 | – | – | – | 9.96
14 | Cc1ccccc1C1CCN(C(=O)N[C@H](Cc2cc(C)c3[nH]ncc3c2)C(=O)N2CCC(N3CCCCC3)CC2)CC1 | – | – | – | 6.77
15 | Cc1cc(C[C@@H](NC(=O)N2CCN(c3ccc(-c4ccccc4)cc3)CC2)C(=O)N2CCC(N3CCCCC3)CC2)cc2cn[nH]c12 | – | – | – | 7.34
16 | Cc1cc(C[C@@H](NC(=O)N2CCN(c3ccccc3F)CC2)C(=O)N2CCC(N3CCCCC3)CC2)cc2cn[nH]c12 | – | – | – | 6.89
17 | Cc1cc(C[C@@H](NC(=O)N2CCN(c3ccc(S(C)(=O)=O)cc3F)CC2)C(=O)N2CCC(N3CCCCC3)CC2)cc2cn[nH]c12 | – | – | – | 7.47
18 | Cc1cc(C[C@@H](NC(=O)N2CCC(c3ccc(C(F)(F)F)cc3C(F)(F)F)CC2)C(=O)N2CCC(N3CCCCC3)CC2)cc2cn[nH]c12 | 7.1 | < 1.5 | – | –

Row | SMILES | Papp [1] [×10⁻⁶ cm/s] | Papp A→B [2] [×10⁻⁶ cm/s] | Activity [3] | pIC50 [4]
19 | Cc1cc(C[C@@H](NC(=O)N2CCC(c3ccccc3)CC2)C(=O)N2CCC(N3CCCCC3)CC2)cc2cn[nH]c12 | – | – | – | 6.34
20 | Cc1cc(C[C@@H](NC(=O)N2CCN(c3ccc(Cl)cc3Cl)CC2)C(=O)N2CCC(N3CCCCC3)CC2)cc2cn[nH]c12 | 17 | < 1.5 | Active | 8.37
21 | Cc1cc(C[C@@H](NC(=O)N2CCN(c3cccc(Cl)c3)CC2)C(=O)N2CCC(N3CCCCC3)CC2)cc2cn[nH]c12 | 5.2 | – | Active | 7.72
22 | Cc1cc(C[C@@H](NC(=O)N2CCC(c3ccccc3F)CC2)C(=O)N2CCC(N3CCCCC3)CC2)cc2cn[nH]c12 | – | – | – | 6.77
23 | Cc1cc(C[C@@H](NC(=O)N2CCC(c3ccc(Cl)cc3)CC2)C(=O)N2CCC(N3CCCCC3)CC2)cc2cn[nH]c12 | – | – | – | 7.39
24 | Cc1cc(C[C@@H](NC(=O)N2CCC(c3ccc(Br)cc3)CC2)C(=O)N2CCC(N3CCCCC3)CC2)cc2cn[nH]c12 | – | – | – | 7.89
25 | Cc1cc(C[C@@H](NC(=O)N2CCN(c3ccccc3C#N)CC2)C(=O)N2CCC(N3CCCCC3)CC2)cc2cn[nH]c12 | – | – | – | 8.05
26 | CCOC(=O)c1ccc(N2CCN(C(=O)N[C@H](Cc3cc(C)c4[nH]ncc4c3)C(=O)N3CCC(N4CCCCC4)CC3)CC2)cc1 | – | – | – | 7.36
27 | Cc1cc(C[C@@H](NC(=O)N2CCN(c3ccc(Cl)c(Cl)c3)CC2)C(=O)N2CCC(N3CCCCC3)CC2)cc2cn[nH]c12 | – | – | – | 7.92
28 | Cc1cc(C[C@@H](NC(=O)N2CCC(c3ccccc3Cl)CC2)C(=O)N2CCC(N3CCCCC3)CC2)cc2cn[nH]c12 | – | – | – | 8.01
29 | Cc1cc(C[C@@H](NC(=O)N2CCN(c3ccc(Cl)cc3)CC2)C(=O)N2CCC(N3CCCCC3)CC2)cc2cn[nH]c12 | – | – | – | 7.11
30 | Cc1cc(C[C@@H](NC(=O)N2CCN(c3ccc(C#N)cc3)CC2)C(=O)N2CCC(N3CCCCC3)CC2)cc2cn[nH]c12 | – | – | – | 7.00
31 | Cc1ccc(C2CCN(C(=O)N[C@H](Cc3cc(C)c4[nH]ncc4c3)C(=O)N3CCC(N4CCCCC4)CC3)CC2)c(Cl)c1 | 12 | < 1.5 | Active | 7.80
32 | Cc1cc(C[C@@H](NC(=O)N2CCC(c3cccc(Br)c3)CC2)C(=O)N2CCC(N3CCCCC3)CC2)cc2cn[nH]c12 | – | – | – | 6.89
33 | Cc1ccc(C2CCN(C(=O)N[C@H](Cc3cc(C)c4[nH]ncc4c3)C(=O)N3CCC(N4CCCCC4)CC3)CC2)cc1 | – | – | – | 6.62
34 | COC(=O)c1ccccc1N1CCN(C(=O)N[C@H](Cc2cc(C)c3[nH]ncc3c2)C(=O)N2CCC(N3CCCCC3)CC2)CC1 | – | – | – | 6.96
35 | Cc1cc(C[C@@H](NC(=O)N2CCC(N3Cc4cccc(F)c4NC3=O)CC2)C(=O)N2CCC(N3CCCCC3)CC2)cc2cn[nH]c12 | – | < 1.5 | – | –
36 | Cc1cc(C[C@@H](NC(=O)N2CCC(c3cccc(Cl)c3)CC2)C(=O)N2CCC(N3CCCCC3)CC2)cc2cn[nH]c12 | – | – | – | 6.82
